Test results from patent EP4650362A1, “NEUROPROTECTIVE PSD-95 POLYPEPTIDE INHIBITOR AND USE THEREOF” (Beijing Tuo Jie Biopharmaceutical Co. Ltd., priority 2023, dated 2024).
No end group written: not given here.

Tests used:
human whole blood = test: hemolysis risk test in human whole blood; type: cell-based; conditions: for Hemolysis rate (%): Human, 37 °C 1 h
Experimental: This test example assessed whether a polypeptide compound causes hemolytic reactions in rat, rabbit, and human whole blood.
Preparation of red blood cell suspension: 100 µL of fresh whole blood was collected, and 900 µL of 1× PBS solution was then added. The mixture was shaken on a plate shaker at 30 rpm for 5 min and then centrifuged at 1000 g for 5 min, and the supernatant was discarded. The above washing step was repeated until the supernatant no longer appeared red. The suspension was set aside for later use.
Preparation of test polypeptide solutions: An appropriate amount of 1× PBS solution was added to a powdered polypeptide, and the polypeptide was dissolved to form a standard stock solution. […] Meanwhile, blank 1× PBS was used as a negative control, and a 1× PBS solution containing 0.1% Triton X-100 was used as a positive control.
Incubation: A test solution (500 µL) was added to the red blood cell suspension, and then the mixture was well shaken on a plate shaker at 30 rpm for 5 min, incubated at 37 °C for 1 h, and centrifuged at 1000 g for 5 min.
100 µL of the supernatant was transferred to a single well of a microplate. The absorbance at 540 nm was measured using a SpectraMax M5 microplate reader, and data analysis was performed using GraphPad Prism 9. The hemolysis rate (%) was calculated using the formula: (test sample absorbance - negative control absorbance) / (positive control absorbance - negative control absorbance) × 100%. A rate of less than 5% indicates the absence of hemolysis, while a rate of greater than 5% indicates the presence of hemolysis. Table 3. Testing of the hemolysis risk of the polypeptide compound

[1] = plasma stability test, rat plasma; type: in vitro ADME; conditions: Rat plasma, 25 µM
Experimental: (§1) Solution preparation: An appropriate amount of a test polypeptide compound was weighed out and dissolved in an appropriate amount of 1× PBS to form a 1 mM test solution. NA-1 and NoNO42 were used as positive drugs, propantheline bromide was used as a human plasma test control, and lovastatin was used as a rat plasma test control. Plasma stability test: 12.5 µL of the 1 mM test solution was added to a 495 µL pre-incubated plasma sample. […] For each incubation time, two parallel samples were set. Subsequently, 200 µL of stop solution was added to stop the incubation, and the mixtures were vortexed for 5 min. Then the mixtures were centrifuged at 10,000 rpm at 4 °C for 10 min to remove the protein in the sample, and 70 µL of the supernatant was transferred to a new 96-well plate (70 µL of water was added to each well beforehand) and well mixed. […] Sample pretreatment: […] LC-MS analysis: […] (2) Mass-spectrometric conditions: The mass spectrometry analysis used an electrospray ionization (ESI) source, a positive ion analysis mode, and a multi-reaction monitoring (MRM) scan mode. […] The plasma stability of the polypeptide compound

[2] = plasma stability test with alteplase added, human plasma; type: in vitro ADME; conditions: Human plasma + rt-PA (50 µg/mL alteplase), 25 µM
Experimental: as §1, with “mixed. Plasma stability test with alteplase added: An appropriate amount of solid alteplase was weighed out, and an appropriate volume of water was added. The mixture was vortexed to dissolve alteplase, forming a 1 mg/mL solution of alteplase. 250 µL of the 1 mg/mL solution of alteplase was added to 4750 µL of plasma to form a plasma sample containing 50 µg/mL alteplase. The other procedures were the same as in the aforementioned "plasma stability test", with the difference being that the plasma sample containing 50 µg/mL alteplase was used instead of plasma.” for “mixed.”

[3] = pharmacokinetic study of different doses in rats; type: in vivo, SD rats; conditions: intravenous bolus injection, 3 nmol/g, n = 3
Experimental: For example, at high doses, the agent causes symptoms such as tachycardia and blood pressure reduction due to excessive histamine release. Therefore, the pharmacokinetic profile of polypeptide compound 14 was assessed again using three doses: a high dose (3 nmol/g), a medium dose (1 nmol/g), and a low dose (0.3 nmol/g). […] Plasma concentration-time curves were plotted, and the pharmacokinetic parameters were calculated using WinNonlin software. Table 6. Intravenous bolus injection pharmacokinetic parameters in rats (different doses, n = 3)

histamine release = test: ability to induce histamine release in beagle dogs (plasma); type: in vivo; conditions: beagle dog plasma, 1.2 nmol/g
Experimental: With beagle dogs as test animals, the ability of a polypeptide compound administered via single intravenous infusion to induce histamine release in dogs (plasma) was studied.
This test was performed synchronously with Test Examples 3.9, with four animals per group and blood collection time points set as follows: before administration (0 h), and 2 min, 5 min, and 15 min after the end of intravenous infusion.
Sample analysis and data processing were performed with reference to the methods in 3.7.3. Table 10. Histamine levels at different time points

Sequence: YGRKKRRQRRRKLSSIESDV [NA-1, YGRKKRRQR RRKLSSIESDV, reference compound]
- Hemolysis rate (%) (human whole blood; 1.0 µM): -0.52%
- Hemolysis rate (%) (human whole blood; 2.5 µM): -0.59%
- Hemolysis rate (%) (human whole blood; 5.0 µM): -0.49%
- Hemolysis rate (%) (human whole blood; 10 µM): -0.54%
- Hemolysis rate (%) (human whole blood; 25 µM): -0.53%
- Hemolysis rate (%) (human whole blood; 50 µM): 0.06%
- hemolysis rates (human whole blood; human whole blood, concentration range of 1 to 50 µM): less than 5%
- Relative remaining compound content (%) ([1]; 0min (standard 100%)): 100.0%
- Relative remaining compound content (%) ([1]; 10min): 103.7%
- Relative remaining compound content (%) ([1]; 20min): 77.5%
- Relative remaining compound content (%) ([1]; 30min): 69.5%
- Relative remaining compound content (%) ([1]; 60min): 54.4%
- Relative remaining compound content (%) ([1]; 120min): 42.1%
- remaining at 10 min, 25 µM ([1]; rat, plasma, 10min, read-out: Relative remaining compound content (%)): 94.1%
- remaining at 20 min, 25 µM ([1]; rat, plasma, 20min, read-out: Relative remaining compound content (%)): 83%
- remaining at 0.5 h, 25 µM ([1]; rat, plasma, 30min, read-out: Relative remaining compound content (%)): 73.3%
- remaining at 1 h, 25 µM ([1]; rat, plasma, 60min, read-out: Relative remaining compound content (%)): 57%
- remaining at 2 h, 25 µM ([1]; rat, plasma, 120min, read-out: Relative remaining compound content (%)): 28.4%
- Relative remaining compound content (%) ([2]; 0min (standard 100%)): 100.0%
- Relative remaining compound content (%) ([2]; 10min): 23.9%
- Relative remaining compound content (%) ([2]; 20min): 7.6%
- Relative remaining compound content (%) ([2]; 30min): 3.4%
- Relative remaining compound content (%) ([2]; 60min): 0.9%
- Relative remaining compound content (%) ([2]; 120min): 0.3%
- half-life ([3]; SD, rat, in vivo): 2.1 min
- AUC(0-t) ([3]; blood to 180 min): 1149 ng·h/mL
- AUC(inf) [3]: 1154 ng·h/mL
- Cmax [3]: 7188 ng/mL
- MRTO-inf [3]: 7.5 min
- Histamine levels (sums of detected histamine and 3-methylhistamine) (histamine release; 0 min (before administration)): 7.08±3.15
- Histamine levels (sums of detected histamine and 3-methylhistamine) (histamine release; 2 min after the end of intravenous infusion): 40.47±64.51
- Histamine levels (sums of detected histamine and 3-methylhistamine) (histamine release; 5 min after the end of intravenous infusion): 73.95±131.85
- Histamine levels (sums of detected histamine and 3-methylhistamine) (histamine release; 15 min after the end of intravenous infusion): 68.80±124.89
